Experiments:
human FFA2-eYFP = target: T1, human FFA2-eYFP (Homo sapiens, UniProt O15552); test: [35S]GTPγS incorporation assay, membranes of Flp-In T-Rex 293 cells; type: biochemical; settings: for GTPγS pIC50: hFFA2, propionate at EC80, mean ± SEM, three or more experiments; for LLEGTPγS: pIC50, GTPγS – ClogP
T1 construct: expressed in transfected cells; host or cells: membranes of Flp-In T-Rex 293 cells induced to express the construct
T1 sequence (O15552 1-330): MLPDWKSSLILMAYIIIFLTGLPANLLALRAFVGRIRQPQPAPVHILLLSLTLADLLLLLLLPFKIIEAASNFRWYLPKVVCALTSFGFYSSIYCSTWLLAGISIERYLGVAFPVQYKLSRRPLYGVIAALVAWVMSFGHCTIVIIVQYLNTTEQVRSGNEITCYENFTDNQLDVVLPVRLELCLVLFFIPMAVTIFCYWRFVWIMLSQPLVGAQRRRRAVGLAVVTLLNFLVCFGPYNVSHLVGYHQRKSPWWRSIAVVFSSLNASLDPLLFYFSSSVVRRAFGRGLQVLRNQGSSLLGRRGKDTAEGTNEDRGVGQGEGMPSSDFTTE
Method: (§1) The activity of the compounds on FFA2 was evaluated in two different functional antagonist assays, both using propionate at EC80 as the agonist. The GTPγS assay reflects receptor activation by directly assessing G protein recruitment, whereas the cAMP assay, performed in whole cells, reflects a physiologically relevant downstream second messenger.
Functional activity of the compounds were tested in a [^35S]GTPγS incorporation assay using membranes of Flp-In T-Rex 293 cells induced to express human FFA2-eYFP. […] The reaction was initiated by addition of [^35S]GTPγS (100 nCi per reaction) containing 1 μM GDP and incubated at 30 °C for 60 min. The reaction was terminated by rapid vacuum filtration through GF/C glass fiber filter-bottom 96-well microplates (PerkinElmer Life Sciences, Beaconsfield, UK) using a UniFilter FilterMate Harvester (PerkinElmer). Unbound radioligands were removed from filters by three washes with ice-cold PBS. MicroScint-20 (PerkinElmer) was added to dried filters, and [^35S]GTPγS binding was quantified by liquid scintillation spectroscopy.

hFFA2 = target: T2, hFFA2 (Homo sapiens, UniProt O15552); test: cAMP assay, antagonist mode, Flp-In T-Rex 293 cells expressing hFFA2-eYFP; type: cell-based; settings: for cAMP pIC50: hFFA2, antagonist mode, propionate at EC80, mean ± SEM, three or more experiments; for LLEcAMP: pIC50, cAMP – ClogP; for IC50 / hFFA2 cAMP (pIC50): supplementary CSV; for IC50: read-out: hFFA2 cAMP (pIC50) (converted)
T2 construct: expressed in transfected cells; host or cells: Flp-In T-Rex 293 cells, doxycycline-induced
T2 sequence (O15552 1-330): T1 sequence (O15552 1-330)
Method: as §1
The hFFA2-eYFP and hFFA3-eYFP Flp-In T-Rex 293 cell lines were maintained in Dulbecco’s modified Eagle mMedium (DMEM, ThermoFisher #11965092) supplemented with 10% (v/v) fetal bovine serum, 100 U/mL penicillin, 100 μg/mL streptomycin, 5 μg/mL blasticidin S, and 200 μg/mL hygromycin B and incubated at 37 °C and 5% CO2 in a humidified incubator. Cells were passaged at 70–80% confluency.
To determine the compound’s ability to activate or inhibit the Gi-coupled FFA2 or FFA3, intracellular cAMP concentrations were determined using Flp-In T-Rex293 cells induced to express hFFA2-eYFP or hFFA3-eYFP. Experiments were carried out using a homogeneous time-resolved FRET-based detection kit (CisBio, PerkinElmer #62AM9PEC) according to the manufacturer’s protocol. The day before the assay, 10,000 cells/well were plated in DMEM supplemented with penicillin/streptomycin (100 units/mL and […], respectively), 5 μg/mL blasticidin S, and 200 μg/mL hygromycin B in 96-well cell culture microplates (Greiner Bio-One) and induced to express hFFA2-eYFP or hFFA3-YFP with 100 ng/mL doxycycline.
In antagonist mode, the cells were pre-incubated for 20 min with antagonist test compounds in HBSS together with 50 μM IBMX at rt. Then, the cells were further incubated for 25 min at rt in HBSS with the agonist compound, sodium propionate at EC80 (51.4 μM for FFA2, 13.2 μM for FFA3), and 3 μM forskolin. Reactions were stopped, and the output was measured with an Envision plate reader using a time-resolved fluorescence protocol, measuring the light emission at 620 and 665 nm. All analyses were performed in triplicate and analyzed using GraphPad Prism (version 9).

| SMILES | GTPγS pIC50 (human FFA2-eYFP) | LLEGTPγS (human FFA2-eYFP) | cAMP pIC50 (hFFA2) | LLEcAMP (hFFA2) | IC50 (hFFA2) [nM] | hFFA2 cAMP (pIC50) (hFFA2) | decrease in potency compared to 16a (human FFA2-eYFP; GTPγS assay) [fold] | decrease in potency compared to 16a (hFFA2; cAMP assay) [fold] | potency decrease on elongated tetrazole linker (human FFA2-eYFP; vs 16e, GTPγS assay) | potency decrease on elongated tetrazole linker (hFFA2; vs 16e, cAMP assay) |
| --- | --- | --- | --- | --- | --- | --- | --- | --- | --- | --- |
| O=C(Cc1ccccc1)N[C@@H](Cc1ccc(C(F)(F)F)cc1)Cc1nnn[nH]1 [Compound 16a, (S)-N-(1-(1H-Tetrazol-5-yl)-3-(4-(trifluoromethyl)phenyl)propan-2-yl)-2-phenylacetamide] | 8.36 ± 0.09 | 5.80 | 7.89 ± 0.20 | 5.33 | 11.7 | – | – | – | – | – |
| O=C(N[C@@H](Cc1ccc(C(F)(F)F)cc1)Cc1nnn[nH]1)C1Cc2ccccc21 (stereo partly drawn) [Compound 16b, N-((S)-1-(1H-Tetrazol-5-yl)-3-(4-(trifluoromethyl)phenyl)propan-2-yl)bicyclo[4.2.0]octa-1(6),2,4-triene-7-carboxamide] | 8.06 ± 0.06 | 5.49 | 7.96 ± 0.03 | 5.39 | – | 7.95 ± 0.12 | – | – | – | – |
| O=C(Cc1cccc(F)c1)N[C@@H](Cc1ccc(C(F)(F)F)cc1)Cc1nnn[nH]1 [Compound 16c, (S)-N-(1-(1H-Tetrazol-5-yl)-3-(4-(trifluoromethyl)phenyl)propan-2-yl)-2-(3-fluorophenyl)acetamide] | 8.13 ± 0.04 | 5.42 | 8.26 ± 0.16 | 5.55 | – | – | – | – | – | – |
| O=C(Cc1cccc(F)c1)N[C@@H](Cc1ccccc1)Cc1nnn[nH]1 [Compound 16d, (S)-2-(3-Fluorophenyl)-N-(1-phenyl-3-(1H-tetrazol-5-yl)propan-2-yl)acetamide] | 7.47 ± 0.04 | 5.65 | 6.91 ± 0.07 | 5.09 | 102 | – | – | – | – | – |
| O=C(Cc1ccc(Cl)cc1)N[C@@H](Cc1ccc(C(F)(F)F)cc1)Cc1nnn[nH]1 [Compound 16f, (S)-N-(1-(1H-Tetrazol-5-yl)-3-(4-(trifluoromethyl)phenyl)propan-2-yl)-2-(4-chlorophenyl)acetamide] | 8.07 ± 0.04 | 4.79 | 8.08 ± 0.11 | 4.80 | 9.33 | – | – | – | – | – |
| O=C(Cc1cccc(C(F)(F)F)c1)N[C@@H](Cc1ccc(C(F)(F)F)cc1)Cc1nnn[nH]1 [Compound 16i, (S)-N-(1-(1H-Tetrazol-5-yl)-3-(4-(trifluoromethyl)phenyl)propan-2-yl)-2-(3-(trifluoromethyl)phenyl)acetamide] | 8.05 ± 0.21 | 4.60 | 7.68 ± 0.11 | 4.23 | 15.8 | – | – | – | – | – |
| CCOc1cccc(CC(=O)N[C@@H](Cc2ccc(C(F)(F)F)cc2)Cc2nnn[nH]2)c1 [Compound 16m, (S)-N-(1-(1H-Tetrazol-5-yl)-3-(4-(trifluoromethyl)phenyl)propan-2-yl)-2-(3-ethoxyphenyl)acetamide] | 8.05 ± 0.19 | 5.04 | 7.77 ± 0.12 | 4.76 | 15.8 | – | – | – | – | – |
| O=C(Cc1cccc(OC(F)(F)F)c1)N[C@@H](Cc1ccc(C(F)(F)F)cc1)Cc1nnn[nH]1 [Compound 16n, (S)-N-(1-(1H-Tetrazol-5-yl)-3-(4-(trifluoromethyl)phenyl)propan-2-yl)-2-(3-(trifluoromethoxy)phenyl)acetamide] | 7.50 ± 0.23 | 3.91 | 7.44 ± 0.18 | 3.85 | 46.8 | – | – | – | – | – |
| O=C(CC1CCCC1)N[C@@H](Cc1ccc(C(F)(F)F)cc1)Cc1nnn[nH]1 [Compound 16o, (S)-N-(1-(1H-Tetrazol-5-yl)-3-(4-(trifluoromethyl)phenyl)propan-2-yl)-2-cyclopentylacetamide] | 5.78 ± 0.14 | 2.89 | 5.24 ± 0.17 | 2.35 | – | 5.22 ± 0.18 | – | – | – | – |
| CCCCCC(=O)N[C@@H](Cc1ccc(C(F)(F)F)cc1)Cc1nnn[nH]1 [Compound 16p, (S)-N-(1-(1H-Tetrazol-5-yl)-3-(4-(trifluoromethyl)phenyl)propan-2-yl)hexanamide] | 6.37 ± 0.44 | 3.46 | 6.36 ± 0.12 | 3.45 | 355 | – | – | – | – | – |
| O=C(CCc1ccccc1)N[C@@H](Cc1ccc(C(F)(F)F)cc1)Cc1nnn[nH]1 [Compound 16q, (S)-N-(1-(1H-Tetrazol-5-yl)-3-(4-(trifluoromethyl)phenyl)propan-2-yl)-3-phenylpropanamide] | 7.19 ± 0.04 | 4.30 | 6.78 ± 0.14 | 3.89 | 186 | – | – | – | – | – |
| O=C(Cc1ccccn1)N[C@@H](Cc1ccc(C(F)(F)F)cc1)Cc1nnn[nH]1 [Compound 16r, (S)-2-(2-((1-(1H-Tetrazol-5-yl)-3-(4-(trifluoromethyl)phenyl)propan-2-yl)amino)-2-oxoethyl)pyridin-1-ium 2,2,2-trifluoroacetate] | 6.71 ± 0.17 | 5.64 | 5.93 ± 0.15 | 4.86 | 1450 | – | – | – | – | – |
| O=C(Cc1cccnc1)N[C@@H](Cc1ccc(C(F)(F)F)cc1)Cc1nnn[nH]1 [Compound 16s, (S)-3-(2-((1-(1H-Tetrazol-5-yl)-3-(4-(trifluoromethyl)phenyl)propan-2-yl)amino)-2-oxoethyl)pyridin-1-ium 2,2,2-trifluoroacetate] | 7.29 ± 0.07 | 6.22 | 6.89 ± 0.10 | 5.82 | 91.2 | – | 7 | 7 | – | – |
| O=C(Cc1ccncc1)N[C@@H](Cc1ccc(C(F)(F)F)cc1)Cc1nnn[nH]1 [Compound 16t, (S)-N-(1-(1H-Tetrazol-5-yl)-3-(4-(trifluoromethyl)phenyl)propan-2-yl)-2-(pyridin-4-yl)acetamide] | 6.47 ± 0.15 | 5.40 | 5.74 ± 0.13 | 4.67 | 2950 | – | – | – | – | – |
| O=C(Cc1ccc(Cl)nc1)N[C@@H](Cc1ccc(C(F)(F)F)cc1)Cc1nnn[nH]1 [Compound 16v, (S)-5-(2-((1-(1H-Tetrazol-5-yl)-3-(4-(trifluoromethyl)phenyl)propan-2-yl)amino)-2-oxoethyl)-2-chloropyridin-1-ium 2,2,2-trifluoroacetate] | 7.20 ± 0.14 | 5.42 | 6.98 ± 0.13 | 5.20 | 95.5 | – | – | – | – | – |
| O=C(Cc1cccc(Cl)c1)N[C@H](CCc1nnn[nH]1)Cc1ccc(C(F)(F)F)cc1 [Compound 21, (R)-N-(4-(1H-Tetrazol-5-yl)-1-(4-(trifluoromethyl)phenyl)butan-2-yl)-2-(3-chlorophenyl)-acetamide] | 7.72 ± 0.12 | 3.92 | 7.55 ± 0.14 | 3.75 | 30.9 | – | – | – | 5–6 fold | 5–6 fold |
